These results are taken from patent US7601501B2, “Controlling osteogenesis by inhibition of osteogenic suppressors” (The Scripps Research Institute, priority 2006, dated 2009).

“Also recorded” adds a separate entry of the source. Strand notation (5' to 3'): a small letter for the sugar, then the base; units joined by * are phosphorothioate-linked, units joined directly phosphodiester-linked; [ ] holds rarer units or linkages, { } end groups; capitals alone tell only the bases. d = 2'-deoxy (DNA)

The subject of data set [1] is CREB. Put plainly: CRE decoy transfection followed by osteogenic or adipogenic induction media. The format is cell-based, human. The note with it: 90 nM oligonucleotide, vs CRE mismatch control; for adipogenic differentiation after decoy transfection: adipogenic induction media. The method, then:
(§1) The human mesenchymal stem cells (hMSCs, PT-2501) were purchased from Cambrex Inc. and cultured as instructed by the supplier. Cells were expanded to passage 5 before being used for siRNA library screen. Briefly, diluted Xtreme-siRNA transfection reagent (cat# 4 476 115 00, Roche) (0.12 μl Xtreme in 14 μl DMEM) was mixed with pre-spotted siRNA (14 ng/well) in each well of 384-well plates for one hour. Cells (4000/well) in 60 μl media (no antibiotics) were then added using automated dispenser (Multidrop 384, Thermo LabSystems) (siRNA final concentration at around 15 nM). Transfection was allowed to continue for 8 hours before first media renewal. After 7 days of culture, cells were stained for alkaline phosphatase (ALP) activity (cat# 86R-1KT, Sigma). Post-screen assays were done in 96-well plates and siRNA was transfected at the concentration of 30 nM at the cell density of 8000 cells/well. CRE decoy oligonucleotide and control oligonucleotide (phosphorothioate bond modification on all nucleotides) (Park, Y. G. et al., J Biol Chem 274:1573-1580 (1999)) were transfected into cells similarly as siRNA using Xtreme-siRNA transfection reagent, except that the final DNA concentration was 90 nM. Control siRNA (siCon) used in the screen contains a pool of 50 scrambled sequences that have at least 4 mismatches to known human transcripts and ESTs, and at least 2-3 mismatches to the whole human genome. siCon used in target characterization after primary screen was purchased from Dharmacon (D-001210-01-05), which was bioinformatically designed to have >=4 mismatches with known human and mouse genes. siTOX was also purchased from Dharmacon (D-001500-01-05).
To find out whether CREB (cAMP Responding Element Binding protein), a common downstream effector of cAMP signaling pathway, is involved in mediating cAMP signaling controlled differentiation of hMSCs, we checked the expression level of the active form of CREB proteins in cells 3 days after siP2RY11, siADK, siGNAS, siSLC12a2 or siCon transfection. […]

In data set [2] the test system is human mesenchymal stem cells (hMSCs). Put plainly: Oil Red O staining, adipogenic differentiation with adipogenic inducing media. Type of data set: cell-based. How it is done: Cells were rinsed with PBS twice, fixed in 10% formalin solution for 20 minutes, rinsed with PBS twice and dH2O once, washed with propylene glycol for 5 minutes, and stained with Oil red in propylene glycol (I2722A, Newcomer Supply) for 30 minutes. Cells were then washed with 85% propylene glycol for 5 minutes, rinsed with dH2O 3 times and preserved in 50% glycerol.
Bone cell maturation is accompanied by extracellular matrix (ECM) mineralization (John Bilezikian et al., Principles of bone biology, Vol 1, 2nd edn: Academic Press) (2002)). To examine whether the osteogenic differentiation of hMSCs induced by the hit siRNAs can further proceed to the maturation stage, hit siRNA treated cells were cultured for 20 days. […] These observations are consistent with the conclusion that the targeted genes of the ten effective hit siRNAs not only play inhibitory roles in osteogenic specification of hMSCs, but also in bone cell maturation. […] Furthermore, in osteoporotic patients, the number of adipocytes was increased in the marrow, implying a change of cell fate disposition from osteoblast lineage to adipocyte lineage (Justesen, J. et al., Biogerontology 2:165-171 (2001); Meunier, P. et al., Clin Orthop Relat Res 80:147-154 (1971)). […]

Data set [3] has the same test system. Nature of the data set: Compound treatment: OS-induced osteogenic differentiation of hMSCs (ALP / alizarin red staining). The note with it: compound combined with OS treatment; ALP and/or alizarin red staining. The format is cell-based. The method, then:
8-CPT-cAMP, Na (cat# 116812), 5-Iodotubercidin (cat# 407900), Prostaglandin E2 (PGE2, cat# 538904), SB 202190 (cat# 559388) and U0126 (cat# 662005) were purchased from Calbiochem; N6,2′-O-Dibutyryl-cAMP (cat# D0260-5MG), forskolin (cat# F6886), ascorbic acid 2-phosphate (cat# 49752-10G), β-glycerophosphate (G-6251), dexamethasone (D8893), 3-isobutyl-1-methylxanthine (IBMX, I5879) and Insulin (I 9278) were purchased from Sigma/Aldrich/Fluka.
Since the targeted genes are all positively involved in intracellular cAMP signaling, we tested the effect of two compounds of opposing function on cAMP production on osteogenic differentiation of hMSCs, ADK inhibitor 5-iodotubercidin and ADCY activator forskolin (Cottam, H. B. et al., J Med Chem 36:3424-3430 (1993); de Souza, N. J. et al., Med Res Rev 3:201-219 (1983)). […] ATP has been shown as a ligand for P2RY11 receptor (Communi et al., 1997). […] The present observations are consistent with the conclusion that […] in hMSCs, and vice versa.

The test system of data set [4] is BMP-2, PLZF, TAZ. Put plainly: RT-PCR of positive regulators of osteogenesis. Type of data set: cell-based, human. The note with it: samples collected on day 7 or day 12 after siRNA transfection. The method, then: Total RNA from each sample was prepared from around 5×10(4) cells using RNAeasy mini kit from Qiagen and further treated with Turbo DNA-Free (cat# 1907, Ambion) to prevent DNA contamination. Reverse transcription was carried out using SuperScript First-Strand Synthesis System for RT-PCR (cat# 11904-018, Invitrogen) or Qiagen OneStep RT-PCR kit (cat# 210210) as instructed. PCR primers used were as follows: […]
To test their roles in our siRNA induced osteogenic differentiation, RT-PCR was performed on these genes. […] In addition, MAPK signaling pathways have been shown activated in the OS treated hMSCs, and inhibition of these pathways suppresses OS induced osteogenesis (FIG. 9b) (Jaiswal, R. K. et al., J Biol Chem 275:9645-9652 (2000)).

The subject of data set [5] is human mesenchymal stem cells (hMSCs). Put plainly: Alizarin red staining for calcium phosphate deposits (ECM mineralization, bone cell maturation). The format is cell-based. The note with it: OS started three days after siRNA transfection and continued for 9 days. The method, then:
Cells were rinsed with PBS twice, stained in alizarin red solution (cat# vw3611-2, VWR) for 8 minutes at room temperature, washed with PBS again, fixed in 10% formalin solution (cat# HT-5014, Sigma) for 20 minutes, then rinsed with water and air dried.
Bone cell maturation is accompanied by extracellular matrix (ECM) mineralization (John Bilezikian et al., Principles of bone biology, Vol 1, 2nd edn: Academic Press) (2002)). […] […] These observations are consistent with the conclusion that the targeted genes of the ten effective hit siRNAs not only play inhibitory roles in osteogenic specification of hMSCs, but also in bone cell maturation. […] Furthermore, in osteoporotic patients, the number of adipocytes was increased in the marrow, implying a change of cell fate disposition from osteoblast lineage to adipocyte lineage (Justesen, J. et al., Biogerontology 2:165-171 (2001); Meunier, P. et al., Clin Orthop Relat Res 80:147-154 (1971)). We therefore examined the effect of our hit siRNAs on adipogenic differentiation of hMSCs by combined treatment with an adipogenic inducing cocktail (100 μg/ml IBMX, 1 μM DEX and 10 μg/ml insulin).

For data set [6] the test system is unchanged. Nature of the data set: Alkaline phosphatase (ALP) activity staining of siRNA-transfected hMSCs (osteogenic differentiation screen). Type of data set: cell-based. The note with it: for ALP activity induced by the hit siRNAs or OS, on co-transfection: co-transfected with each hit siRNA, compared to siCon co-transfection. How it is done:
as §1
Fifty five hits that gave rise to a significant increase of ALP activity on day 7 after siRNA transfection in hMSCs were identified and confirmed (FIG. 2a & Table 1).

Data set [7] deals with ERK1/2 and p38. Nature of the data set: Western blot of phosphorylated ERK1/2 and p38. The format is cell-based, human. The note with it: 72 hours after transfection. The method, then: Cell lyses buffer contains 20 mM Tris pH8.0, 1 mM EDTA, 150 mM NaCl and 0.5% NP-40, and before usage, protease inhibitor cocktail (Cat# p8340, Sigma, 1:100 dilution) and phosphatase inhibitor cocktail 2 (Cat# p5726, sigma, 1:100 dilution) were added. Proteins (60 μg/well) were separated in 12% Novex Tris-Glycine gel (Cat# EC6008 box, Invitrogen) and transferred to Nitrocellulose membrane (Cat# LC2001, Invitrogen) using the XCell II blot module system (Cat# EI9051, Invitrogen). The membrane was blocked in 5% milk/PBST for 1 hour at room temperature, incubated over night at 4 degree with primary antibody, washed 3 times with PBST (0.05% Tween 20 in PBS), followed by one hour incubation with secondary antibody in 5% milk/PBST and 3 times wash with PBST at room temperature. For antibody against pCREB however, PBST was substituted with PBS in all steps except for the last one. Antibody-bound proteins were detected utilizing ECL Western blotting detection reagent (Amersham Biosciences).
Anti-phospho-CREB was purchased from Upstate Biotechnology (cat# 06-519); Anti-phospho-p38 was purchased from Cell signaling technology (cat# 9910).
We therefore examined the activation status of ERK1/2 and p38 in the siDUSP6 treated hMSCs along with other siRNA treated samples by western blot using antibodies against the phosphorylated form of the protein at 72 hours after transfection (FIG. 9c).
In general terms: In western blotting, separated proteins are transferred to a membrane and probed.

In the case of “5′-TGACGTCATGACGTCATGACGTCA-3′ (DNA dT*dG*dA*dC*dG*dT*dC*dA*dT*dG*dA*dC*dG*dT*dC*dA*dT*dG*dA*dC*dG*dT*dC*dA) [CRE decoy, synthetic 24-mer CRE decoy palindrome oligonucleotide, phosphorothioate bond modification on all nucleotides]”, the “adipogenic differentiation after decoy transfection” value in data set [1] is “inhibited cells from undergoing adipogenic differentiation”; in data set [1] (listed as CRE (CREB responding element) decoy), “less responsive”. For the same molecule, the “osteogenic differentiation after decoy transfection” value in data set [1] (osteogenic induction media (OS), listed as CRE (CREB responding element) decoy) was “less responsive”.
In the case of `Nc1ncnc2c1c(I)cn2[C@@H]1O[C@H](CO)[C@@H](O)[C@H]1O` [5-iodotubercidin], the “adipogenic differentiation of hMSCs (oil red o staining), compound” value in data set [2] (adipogenic inducing media plus compound) is recorded as “inhibited the adipogenic differentiation of hMSCs in a dose dependent manner”. The “osteogenic effect of the OS media on hMSCs” value in data set [3] is listed as “significantly enhanced; also recorded: enhanced the osteogenic effect of the OS media”.
In the case of “CAGAUGCAUCGACCAAAAC (siRNA; listed as RNA, chemistry not fully specified) [siMJD, siRNA targeting Machado-Joseph disease (ataxin 3)]”, the “expression of PLZF (RT-PCR)” value in data set [4] is listed as “detected; also recorded: induced”. Further, the “intensity of alizarin red staining (bone cell maturation), 3+9OS” value in data set [5] is listed as “no significant effect”.
With “CGGUCACGGAUGACGACUA (listed as RNA, chemistry not given here) [siCOMP, siRNA targeting cartilage oligomeric matrix protein]”, the “adipogenesis induced by adipogenic inducing media (Oil Red O)” value in data set [2] (Adipo on the third day after siRNA transfection, continued for 12 days) was “enhances adipogenesis”. The “osteogenic differentiation (alkaline phosphatase activity)” value in data set [6] (9 days after siRNA transfection) was “induces osteogenic differentiation”.
On to “CUGUGGUGUCUUGGUACAU (listed as RNA, chemistry not given here) [siDUSP6, siRNA targeting dual specificity phosphatase 6]”, for which the “intensity of alizarin red staining (bone cell maturation), 3+9OS” value in data set [5] is “modest enhancement”. In addition, the “phosphorylated (active) p38 level (Western blot)” value in data set [7] is reported as “increased level; also recorded: up regulated”.
As to “UAGUAGAGAUAUGGAGUGCtg (antisense); GCACUCCAUAUCUCUACUAtt (sense) (chain 1 UAGUAGAGAUAUGGAGUGCTG; chain 2 GCACUCCAUAUCUCUACUATT; chemistry not given here) [CBFA1 siRNA, CBFA 1-specific siRNA]”, the “ALP activity induced by the hit siRNAs or OS, on co-transfection” value in data set [6] is “reduced the level of ALP activity”; in data set [6] (listed as siCbfa 1), “reduced”.
